pIC50: −log10 of the molar value. *1 amine or outer side, *2 acyl side, *3 side chain or, on linkers, in order; H or OH if unused. Where a SMILES comes first, the peptide text is derived from it. Bridges are numbered along the chain shown (N, C = ends). [ ]: non-standard residue; d: D form. The star is where a group is joined. Phe(4-COOH) = N[C@@H](Cc1ccc(C(=O)O)cc1)C(=O)O; Bip = N[C@@H](Cc1ccc(-c2ccccc2)cc1)C(=O)O; Phe(4-CN) = N#Cc1ccc(C[C@H](N)C(=O)O)cc1; Phe(3-Me) = Cc1cccc(C[C@H](N)C(=O)O)c1; γGlu = O=C(O)[C@H](CCC(=O)[*:2])N[*:1]; Val(3-OH) = CC(C)(O)[C@H](N)C(=O)O; 4Pal = N[C@@H](Cc1ccncc1)C(=O)O; Cha = N[C@@H](CC1CCCCC1)C(=O)O; Carboxymethyl = O=C(O)C*; NMeA = CN[C@@H](C)C(=O)O; Aun = NCCCCCCCCCCC(=O)O; Dab = NCC[C@H](N)C(=O)O; AEEA = NCCOCCOCC(=O)O
What follows are compounds tested against T1, PD-1/PD-L1 interaction (PE-labeled human PD-L1-Ig binding to Jurkat cell line over-expressing human PD-1) (Homo sapiens, UniProt Q15116) (assay: Jurkat-PD-1 Cell Binding High-Content Screening Assay (CBA)). Details: Jurkat-hPD-1 cells, PE-labeled PD-L1-Ig 20 nM final; read-out: Jurkat HPD1 PDL1 IC50.
T1 construct: expressed in transfected cells; host or cells: Jurkat
T1 sequence (Q15116 25-288): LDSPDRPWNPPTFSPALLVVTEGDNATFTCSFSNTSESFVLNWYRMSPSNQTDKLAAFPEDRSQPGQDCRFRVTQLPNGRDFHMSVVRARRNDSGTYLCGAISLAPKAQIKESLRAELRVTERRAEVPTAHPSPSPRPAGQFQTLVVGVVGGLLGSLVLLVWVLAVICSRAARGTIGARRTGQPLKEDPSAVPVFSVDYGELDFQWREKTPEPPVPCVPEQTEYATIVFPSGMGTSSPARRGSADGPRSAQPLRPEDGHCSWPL
Method: Example 2: Jurkat-PD-1 Cell Binding High-Content Screening Assay (CBA)
Phycoerythrin (PE) was covalently linked to the Ig epitope tag of human PD-L1-Ig and fluorescently-labeled PD-L1-Ig was used for binding studies with a Jurkat cell line over-expressing human PD-1 (Jurkat-PD-1). Briefly, 8×10^3 Jurkat-hPD-1 cells were seeded into 384 well plates in 20 μl of DMEM supplemented with 10% fetal calf serum. 100 nl of compound was added to cells followed by incubation at 37° C. for 2 hours. Then, 5 μl of PE-labeled PD-L1-Ig (20 nM final), diluted in DMEM supplemented with 10% fetal calf serum. After 1 hour incubation, cells were fixed with […] in dPBS containing 10 μg/ml Hoechst 33342 and then washed 3× in 100 μl dPBS. Data was collected and processed using a Cell Insight NXT High Content Imager and associated software.

Q: How did the pIC50 turn out when `CC(C)C[C@@H]1NC(=O)[C@H](Cc2c[nH]c3ccccc23)NC(=O)[C@H](CC(=O)O)NC(=O)[C@H](Cc2ccc(C(=O)O)cc2)NC(=O)[C@H](Cc2ccc(OCC(=O)O)cc2)NC(=O)CSC[C@@H](C(=O)N[C@@H](CCN)C(=O)NCCCCCCCCCCC(=O)O)NC(=O)[C@H](CCC(N)=O)NC(=O)[C@H](C(C)C)NC(=O)[C@H](CC2CCCCC2)NC(=O)[C@H](CCN)NC(=O)[C@@H](CC(C)C)NC(=O)[C@H](C)N(C)C(=O)[C@H](C(C)C)NC(=O)[C@H](Cc2ccc(-c3ccccc3)cc2)NC1=O` [Example 1000] ({CH2CO}-Y(Carboxymethyl)[Phe(4-COOH)]DWL[Bip]V[NMeA][dL][Dab][Cha]VQC[Dab][Aun]-OH; thioether N-14) was run?
A: The pIC50 was 7.63.

Q: How did the pIC50 turn out when `Cc1cccc(C[C@@H]2NC(=O)[C@H](CC(=O)O)NC(=O)[C@H](Cc3ccc(C(=O)O)cc3)NC(=O)[C@H](Cc3ccc(OCC(=O)O)cc3)NC(=O)CSC[C@@H](C(=O)N[C@@H](CC(=O)O)C(=O)NCCCCCCCCCCC(=O)O)NC(=O)[C@H](CO)NC(=O)[C@H](C(C)C)NC(=O)[C@H](CC(C)C)NC(=O)[C@H](CC(N)=O)NC(=O)[C@@H](CC(C)C)NC(=O)[C@H](C)N(C)C(=O)[C@H](C(C)C)NC(=O)[C@H](Cc3ccc(-c4ccccc4)cc3)NC(=O)[C@H](CC(C)C)NC2=O)c1` [Example 1001] ({CH2CO}-Y(Carboxymethyl)[Phe(4-COOH)]D[Phe(3-Me)]L[Bip]V[NMeA][dL]NLVSCD[Aun]-OH; thioether N-14 (inferred)) was run?
A: Its pIC50 is 7.04.

Q: How did the pIC50 turn out when `Cc1cccc(C[C@@H]2NC(=O)[C@H](CC(=O)O)NC(=O)[C@H](Cc3ccc(C(=O)O)cc3)NC(=O)[C@H](Cc3ccc(C#N)cc3)NC(=O)CSC[C@@H](C(=O)N[C@@H](CCN)C(=O)NCCCCCCCCCCC(=O)O)NC(=O)[C@H](CO)NC(=O)[C@H](C(C)(C)O)NC(=O)[C@H](CC3CCCCC3)NC(=O)[C@H](CCN)NC(=O)[C@@H](CC(C)C)NC(=O)[C@H](C)N(C)C(=O)[C@H](Cc3ccc(OCC(=O)O)cc3)NC(=O)[C@H](Cc3ccc(-c4ccccc4)cc3)NC(=O)[C@H](Cc3ccc(OCC(=O)O)cc3)NC2=O)c1` [Example 1002] ({CH2CO}-[Phe(4-CN)][Phe(4-COOH)]D[Phe(3-Me)]Y(Carboxymethyl)[Bip]Y(Carboxymethyl)[NMeA][dL][Dab][Cha][Val(3-OH)]SC[Dab][Aun]-OH; thioether N-14) was run?
A: Its pIC50 is 7.96.

Q: `Cc1cccc(C[C@@H]2NC(=O)[C@H](CC(=O)O)NC(=O)[C@H](Cc3ccc(C(=O)O)cc3)NC(=O)[C@H](Cc3ccc(OCC(=O)O)cc3)NC(=O)CSC[C@@H](C(=O)N[C@@H](CCC(=O)O)C(=O)NCCCCCCCCCCC(=O)O)NC(=O)[C@H](CO)NC(=O)[C@H](C(C)C)NC(=O)[C@H](CC(C)C)NC(=O)[C@H](CC(N)=O)NC(=O)[C@@H](CC(C)C)NC(=O)[C@H](C)N(C)C(=O)[C@H](C(C)C)NC(=O)[C@H](Cc3ccc(-c4ccccc4)cc3)NC(=O)[C@H](CC(C)C)NC2=O)c1` [Example 1003] ({CH2CO}-Y(Carboxymethyl)[Phe(4-COOH)]D[Phe(3-Me)]L[Bip]V[NMeA][dL]NLVSCE[Aun]-OH; thioether N-14) was tested. Which pIC50 did it give?
A: The pIC50 was 7.70.

Q: How did the pIC50 turn out when `Cc1cccc(C[C@@H]2NC(=O)[C@H](CC(=O)O)NC(=O)[C@H](Cc3ccc(C(=O)O)cc3)NC(=O)[C@H](Cc3ccc(OCC(=O)O)cc3)NC(=O)CSC[C@@H](C(=O)NCC(=O)N[C@@H](CCC(=O)O)C(=O)NCCCCCCCCCCC(=O)O)NC(=O)[C@H](CO)NC(=O)[C@H](C(C)C)NC(=O)[C@H](CC(C)C)NC(=O)[C@H](CC(N)=O)NC(=O)[C@@H](CC(C)C)NC(=O)[C@H](C)N(C)C(=O)[C@H](C(C)C)NC(=O)[C@H](Cc3ccc(-c4ccccc4)cc3)NC(=O)[C@H](CC(C)C)NC2=O)c1` [Example 1005] ({CH2CO}-Y(Carboxymethyl)[Phe(4-COOH)]D[Phe(3-Me)]L[Bip]V[NMeA][dL]NLVSCGE[Aun]-OH; thioether N-14) was run?
A: Its pIC50 is 7.31.

Q: How did the pIC50 turn out when `Cc1cccc(C[C@@H]2NC(=O)[C@H](CC(=O)O)NC(=O)[C@H](Cc3ccc(C(=O)O)cc3)NC(=O)[C@H](Cc3ccc(OCC(=O)O)cc3)NC(=O)CSC[C@@H](C(=O)NCCCCCCCCCCC(=O)O)NC(=O)[C@H](CO)NC(=O)[C@H](C(C)C)NC(=O)[C@H](CC(C)C)NC(=O)[C@H](CC(N)=O)NC(=O)[C@@H](CC(C)C)NC(=O)[C@H](C)N(C)C(=O)[C@H](C(C)C)NC(=O)[C@H](Cc3ccc(-c4ccccc4)cc3)NC(=O)[C@H](CC(C)C)NC2=O)c1` [Example 1007] ({CH2CO}-Y(Carboxymethyl)[Phe(4-COOH)]D[Phe(3-Me)]L[Bip]V[NMeA][dL]NLVSC[Aun]-OH; thioether N-14) was run?
A: The pIC50 was 6.95.

Q: `Cc1cccc(C[C@@H]2NC(=O)[C@H](CC(=O)O)NC(=O)[C@H](Cc3ccc(C(=O)O)cc3)NC(=O)[C@H](Cc3ccc(OCC(=O)O)cc3)NC(=O)CSC[C@@H](C(=O)NCC(=O)NCCOCCOCC(=O)NCCCCCCCCCCC(=O)O)NC(=O)[C@H](CO)NC(=O)[C@H](C(C)C)NC(=O)[C@H](CC(C)C)NC(=O)[C@H](CC(N)=O)NC(=O)[C@@H](CC(C)C)NC(=O)[C@H](C)N(C)C(=O)[C@H](C(C)C)NC(=O)[C@H](Cc3ccc(-c4ccccc4)cc3)NC(=O)[C@H](CC(C)C)NC2=O)c1` [Example 1011] ({CH2CO}-Y(Carboxymethyl)[Phe(4-COOH)]D[Phe(3-Me)]L[Bip]V[NMeA][dL]NLVSCG[AEEA][Aun]-OH; thioether N-14) was tested. Which pIC50 did it give?
A: Its pIC50 is 7.61.

Q: With `Cc1cccc(C[C@@H]2NC(=O)[C@H](CC(=O)O)NC(=O)[C@H](Cc3ccc(C(=O)O)cc3)NC(=O)[C@H](Cc3ccc(OCC(=O)O)cc3)NC(=O)CSC[C@@H](C(=O)NCC(=O)N[C@@H](CCC(=O)O)C(=O)NCCOCCOCC(=O)N[C@@H](CCC(=O)NCCCCCCCCCCC(=O)O)C(=O)O)NC(=O)[C@H](CO)NC(=O)[C@H](C(C)C)NC(=O)[C@H](CC(C)C)NC(=O)[C@H](CC(N)=O)NC(=O)[C@@H](CC(C)C)NC(=O)[C@H](C)N(C)C(=O)[C@H](C(C)C)NC(=O)[C@H](Cc3ccc(-c4ccccc4)cc3)NC(=O)[C@H](CC(C)C)NC2=O)c1` [Example 1013] ({CH2CO}-Y(Carboxymethyl)[Phe(4-COOH)]D[Phe(3-Me)]L[Bip]V[NMeA][dL]NLVSCGE[AEEA][γGlu][Aun]-OH; thioether N-14) as the compound, how does the pIC50 read?
A: The pIC50 was 7.44.

Q: With `Cc1cccc(C[C@@H]2NC(=O)[C@H](CC(=O)O)NC(=O)[C@H](Cc3ccc(C(=O)O)cc3)NC(=O)[C@H](Cc3ccc(OCC(=O)O)cc3)NC(=O)CSC[C@@H](C(=O)NCC(=O)N[C@@H](CCC(=O)NCCOCCOCC(=O)N[C@@H](CC(=O)O)C(=O)NCCCCCCCCCCC(=O)O)C(=O)O)NC(=O)[C@H](CO)NC(=O)[C@H](C(C)C)NC(=O)[C@H](CC(C)C)NC(=O)[C@H](CC(N)=O)NC(=O)[C@@H](CC(C)C)NC(=O)[C@H](C)N(C)C(=O)[C@H](C(C)C)NC(=O)[C@H](Cc3ccc(-c4ccccc4)cc3)NC(=O)[C@H](CC(C)C)NC2=O)c1` [Example 1014] ({CH2CO}-Y(Carboxymethyl)[Phe(4-COOH)]D[Phe(3-Me)]L[Bip]V[NMeA][dL]NLVSCG[γGlu][AEEA]D[Aun]-OH; thioether N-14) as the compound, how does the pIC50 read?
A: The pIC50 was 7.31.

Q: How did the pIC50 turn out when `Cc1cccc(C[C@@H]2NC(=O)[C@H](CC(=O)O)NC(=O)[C@H](Cc3ccc(C(=O)O)cc3)NC(=O)[C@H](Cc3ccc(OCC(=O)O)cc3)NC(=O)CSC[C@@H](C(=O)NCC(=O)N[C@@H](CCC(=O)NCCOCCOCC(=O)N[C@@H](CCC(=O)O)C(=O)NCCCCCCCCCCC(=O)O)C(=O)O)NC(=O)[C@H](CO)NC(=O)[C@H](C(C)C)NC(=O)[C@H](CC(C)C)NC(=O)[C@H](CC(N)=O)NC(=O)[C@@H](CC(C)C)NC(=O)[C@H](C)N(C)C(=O)[C@H](C(C)C)NC(=O)[C@H](Cc3ccc(-c4ccccc4)cc3)NC(=O)[C@H](CC(C)C)NC2=O)c1` [Example 1015] ({CH2CO}-Y(Carboxymethyl)[Phe(4-COOH)]D[Phe(3-Me)]L[Bip]V[NMeA][dL]NLVSCG[γGlu][AEEA]E[Aun]-OH; thioether N-14) was run?
A: Its pIC50 is 7.27.

Q: How did the pIC50 turn out when `Cc1cccc(C[C@@H]2NC(=O)[C@H](CC(=O)O)NC(=O)[C@H](Cc3ccncc3)NC(=O)[C@H](Cc3ccc(OCC(=O)O)cc3)NC(=O)CSC[C@@H](C(=O)NCC(=O)N[C@@H](CCC(=O)NCCOCCOCC(=O)N[C@@H](CCC(=O)NCCOCCOCC(=O)NCCCCCCCCCCC(=O)O)C(=O)O)C(=O)O)NC(=O)[C@H](CO)NC(=O)[C@H](C(C)C)NC(=O)[C@H](CC(C)C)NC(=O)[C@H](CC(N)=O)NC(=O)[C@@H](CC(C)C)NC(=O)[C@H](C)N(C)C(=O)[C@H](C(C)C)NC(=O)[C@H](Cc3ccc(-c4ccccc4)cc3)NC(=O)[C@H](CC(C)C)NC2=O)c1` [Example 1016] ({CH2CO}-Y(Carboxymethyl)[4Pal]D[Phe(3-Me)]L[Bip]V[NMeA][dL]NLVSCG[γGlu][AEEA][γGlu][AEEA][Aun]-OH; thioether N-14) was run?
A: The pIC50 was 7.53.

Same assay, conditions: PE-labeled PD-L1-Ig 20 nM final, Jurkat-hPD-1 cells; read-out: Jurkat HPD1 PDL1 IC50

Q: How did the pIC50 turn out when `CC(=O)NCCCC[C@@H]1NC(=O)[C@H](C(C)(C)O)NC(=O)[C@H](CC2CCCCC2)NC(=O)[C@H](CCN)NC(=O)[C@@H](CC(C)C)NC(=O)[C@H](C)N(C)C(=O)[C@H](Cc2ccc(C(=O)O)cc2)NC(=O)[C@H](Cc2ccc(-c3ccccc3)cc2)NC(=O)[C@H](Cc2ccc(C(=O)O)cc2)NC(=O)[C@H](Cc2cccc(C)c2)NC(=O)[C@H](CC(=O)O)NC(=O)[C@H](Cc2ccc(OCC(=O)O)cc2)NC(=O)[C@H](C(C)O)NC(=O)CSC[C@@H](C(=O)N[C@@H](CCN)C(=O)NCCOCCOCC(=O)N[C@@H](CCC(=O)NCCCCCCCCCCCCC(=O)O)C(=O)O)NC1=O` (mixture of isomers) [Example 2659] was run?
A: Its pIC50 is 7.94.
